Results from patent US12048678B2, “Compounds for treating myelin related disorders” (Case Western Reserve University, priority 2018, dated 2024).

How the values were obtained:
kappa opioid receptor = kappa opioid receptor (Homo sapiens, UniProt P41145); assay: k-Opioid receptor agonism assay (Tango  U2OS cells); format: cell-based; settings: Compound 1 at 1 μM, TASIN-1 100 nM, U50488 2 μM
EBP = molecular target: T1, EBP (Mus musculus, UniProt P70245); assay: EBP enzymatic assay; format: biochemical; settings: 10 μM, FIG. 4a
T1 construct: active EBP was obtained from mouse microsomes; from tissue
T1 sequence (P70245 1-230): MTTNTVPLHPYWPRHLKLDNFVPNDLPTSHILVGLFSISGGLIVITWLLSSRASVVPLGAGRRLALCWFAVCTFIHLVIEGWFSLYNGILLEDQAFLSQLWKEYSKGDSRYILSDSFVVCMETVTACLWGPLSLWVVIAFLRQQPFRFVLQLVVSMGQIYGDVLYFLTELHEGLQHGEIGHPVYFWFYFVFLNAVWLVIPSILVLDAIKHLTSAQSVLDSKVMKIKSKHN
Method: EBP enzymatic activity was measured using a reported method with slight modifications: active EBP was obtained from mouse microsomes, inhibitors were added, zymostenol was added at a final concentration of 25 μM in a final reaction volume of 500 μl, and the reaction incubated at 37° C. for 2 h. Sterols were extracted using 3×1 ml hexanes, cholesterol-d7 was added to enable quantitation, and the pooled organics were dried (Na2SO4) and evaporated under nitrogen gas. Samples were then silylated and analyzed using GC/MS as described above.

[1] = tested on: cholesterol biosynthesis in OPCs (CYP51, TM7SF2, EBP); assay: GC/MS-based sterol profiling in OPCs; format: cell-based, mouse; settings: range of doses, GC-MS sterol profiling, FIG. 3f
Method: EpiSC-derived OPCs were plated at 0.5 million cells per ml in PDL- and laminin-coated six or twelve well plate with differentiation media. After 24 hours, cells were dissociated with Accutase, rinsed with saline, and cell pellets were frozen. For sterol analyses, cells were lysed in methanol (Sigma-Aldrich) with agitation for 30 minutes and cell debris removed by centrifugation at 10,000 rpm for 15 min. Cholesterol-d7 standard (25,26,26,26,27,27,27-^2H7-cholesterol, Cambridge Isotope Laboratories) was added before drying under nitrogen stream and derivatization with 55 μl of bis(trimethylsilyl)trifluoroacetamide/trimethylchlorosilane to form trimethylsilyl derivatives. Following derivatization at 60° C. for 20 minutes, 1 μl was analyzed by gas chromatography/mass spectrometry using an Agilent 5973 Network Mass Selective Detector equipped with a 6890 gas chromatograph system and a HP-5MS capillary column ([…]). Samples were injected in splitless mode and analyzed using electron impact ionization. Ion fragment peaks were integrated to calculate sterol abundance, and quantitation was relative to cholesterol-d7. The following m/z ion fragments were used to quantitate each metabolite: cholesterol-d7 (465), FF-Mas (482), cholesterol (368), zymostenol (458), zymosterol (456), desmosterol (456, 343), 7-dehydrocholesterol (456, 325), lanosterol (393), lathosterol (458), 14-dehydrozymostenol (456). Calibration curves were generated by injecting varying concentrations of sterol standards and maintaining a fixed amount of cholesterol-D7. The human glioma cell line GBM528 was a gift of Jeremy Rich (Cleveland Clinic). Human cortical spheroids were generated as described previously.

[2] = tested on: EpiSC derived OPCs on microfibers; assay: Oligodendrocyte formation and imaging on electrospun microfibers; format: cell-based, mouse; settings: FIG. 4b
Method: A 12-well plate containing Mimetex aligned scaffold (microfiber plate, AMSBIO, AMS.TECL-006-1X, Electrospun poly-L-lactide Scaffold, […] fibre diameter cell crown inserts) was prepared as previously described. Briefly, fiber inserts were sterilized with 70% ethanol and washed with PBS before being coated with polyornithine and laminin. After laminin coating, 100,000 cells/mL of EpiSC derived OPCs (1.5 mL/well) were plated in differentiation medium. After 24 h the media was replaced with fresh media containing small molecule treatments. Every 48 h the media was replaced with fresh compound containing media for the first 4 days of 14 days culture. Microfibre inserts were fixed with 4% PFA, permeabilized with 0.1% Triton X-100, and blocked with 10% donkey serum (v/v) in PBS for 60 min. Then stained for MBP (Abcam, ab7349; 1:100) and DAPI staining (Sigma; 5 μg/ml). […] The mounted inserts were imaged on the Operetta High Content Imaging and Analysis system (PerkinElmer) and a set of 22 fields captured from each condition resulting in an average of 2000 cells being scored per well. The total microfiber area was calculated using bright filed imaging and a spot finding function (area larger than 2 p×2). The MBP+ pixel area within the defined microfiber area was then defined and the percentage of the total microfiber area calculated.

Chain of kappa opioid receptor (P41145 whole entry): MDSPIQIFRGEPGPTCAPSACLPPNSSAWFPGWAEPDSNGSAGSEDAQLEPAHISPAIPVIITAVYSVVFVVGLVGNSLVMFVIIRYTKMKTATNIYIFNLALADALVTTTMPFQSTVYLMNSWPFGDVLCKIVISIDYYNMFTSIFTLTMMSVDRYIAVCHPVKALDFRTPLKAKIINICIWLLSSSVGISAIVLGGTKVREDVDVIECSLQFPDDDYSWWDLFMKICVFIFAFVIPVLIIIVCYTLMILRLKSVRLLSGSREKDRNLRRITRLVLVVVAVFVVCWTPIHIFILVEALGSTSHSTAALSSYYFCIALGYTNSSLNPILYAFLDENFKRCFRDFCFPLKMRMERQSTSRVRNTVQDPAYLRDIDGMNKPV

## c1ccc(-c2ccc(CN3CCCCCCC3)cc2)cc1 [Compound 1]
Kappa opioid receptor
  effect in cell-based assay for the kappa opioid receptor: little affinity
EBP
  EBP inhibition in an in vitro enzymatic assay: enhanced potency for EBP inhibition
[1]
  EBP inhibition in OPCs (zymostenol): enhanced potency for EBP inhibition
[2]
  area of microfibers wrapped by MBP+ oligodendrocytes: substantially increased
